Measured values published in EP4559922A1, “ANTIHISTAMINE COMPOUND, PREPARATION METHOD THEREFOR AND USE THEREOF” (HC Synthetic Pharmaceutical Co., Ltd., priority 2022, dated 2024).
In brackets after ≈: the same amount, converted by molar mass.

How the values were obtained:
[1] = Antagonism of histamine-induced contraction of isolated ileal smooth muscle of guinea pigs; conditions: relative to tone after adding histamine; x±s, n = 8; 3 min
Description: (§1) The guinea pig was knocked unconscious with a wooden stick, and the abdomen was immediately dissected to separate the ileum about 15 cm in length. The contents of the intestinal segment were flushed with Tyrode's solution and placed in Tyrode's solution at a constant temperature of 37°C for later use, and oxygen was supplied simultaneously. The experimental intestinal tract (1 cm in length) was cut and placed into 20 ml of Tyrode's solution at a constant temperature of 37°C with a continuous oxygen supply. One end of the intestine was fixed on the ventilation hook and the other end was connected to the muscle tone transducer and led to the computer interface. The muscle tone value of the ileal smooth muscle was recorded with a BL system. The experiment was carried out after the intestinal segment contraction became stable.
(§2) After the ileal peristalsis curve stabilized, the tone values before adding the compound were recorded, and then 0.05 mL of histamine was added. […] The operation was repeated 8 times. The antispasmodic percentage was calculated using the following equation. Antispasmodic percentage =; (Tone value after adding histamine−Tone value after adding subject compound)/(Tone value after adding histamine) × 100% [formula]

[2] = Solubility of the compounds in water, methanol and isopropanol; type: physicochemical; conditions: for Solubility in Isopropanol: solvent isopropanol; for Solubility in Water: solvent water
Description: The solubility in water, methanol, and isopropanol of the compounds of the present disclosure and the comparative compounds were measured separately.

[3] = test system: isolated ileal smooth muscle of guinea pigs; test: Effect on muscle tone of isolated ileal smooth muscle of guinea pigs (no histamine added); conditions: X±s; for Antispasmodic percentage: relative to tone before adding compound, n = 8, 5 min; for Smooth muscle tone After administration: 5 minutes after adding drug
Description: as §1
After the ileum contraction curve stabilized, the tone values before adding the drug were recorded, then the drug or DMSO was added, and the average tone value of the ileum contraction curve at that point was recorded 5 minutes later. The operation was repeated 8 times. The antispasmodic percentage was calculated according to the following formula. Antispasmodic percentage =; (Tone value before adding subject compound−Tone value after adding subject compound)/(Tone value before adding subject compound); × 100% [formula]

[4] = test system: histamine-induced asthma in guinea pigs; test: Antiasthmatic effect on histamine-induced asthma in guinea pigs (latency period); type: in vivo; conditions: X±s, n = 5; for Post-administration latency period: 1 mg/kg oral gavage, sixty minutes after administration, histamine hydrochloride spray, capped at 8 minutes
Description: The guinea pigs were placed in a polymethyl methacrylate bell jar and a histamine hydrochloride solution was sprayed ultrasonically (0.8 mg/mL) for 40 seconds. The time point at which the guinea pigs developed asthma was recorded. The time of convulsion and fall was taken as the latency period. Guinea pigs with a latency period exceeding 180 seconds were not selected. […] The guinea pigs were administered by oral gavage at a dose of 2 mL/kg·bw. Sixty minutes after the administration, the guinea pigs were placed in bell jars, and histamine hydrochloride solution was sprayed under the same conditions as in the previous selection. The latency period for the onset of asthma was recorded. […] The results were processed statistically.

[5] = Accelerated stability test; type: physicochemical; conditions: 40°C ± 2°C, relative humidity 75% ± 5%; for remaining at 730 h / remaining at 1460 h / remaining at 2190 h / remaining at 4380 h: storage 75% relative humidity, read-out: Content
histamine = test: Antagonism of histamine-induced contraction of isolated ileal smooth muscle of guinea pigs; conditions: x±s, n = 8; for Smooth muscle tone After administration: 3 minutes after adding 0.05 mL compound following histamine
Description: as §1, §2

SMILES | Content ([5]; Month 0) [%] | Description ([5]; Month 0) | Related substances ([5]; Month 0) [%] | Description ([5]; Month 1) | Related substances ([5]; Month 1) [%] | Description ([5]; Month 2) | Related substances ([5]; Month 2) [%] | Description ([5]; Month 3) | Related substances ([5]; Month 3) [%] | Description ([5]; Month 6) | Related substances ([5]; Month 6) [%] | remaining at 730 h ([5]; Month 1) [%] | remaining at 1460 h ([5]; Month 2) [%] | remaining at 2190 h ([5]; Month 3) [%] | remaining at 4380 h ([5]; Month 6) [%] | Antispasmodic percentage [1] [%] | Antispasmodic percentage ([3]; 5 min) [%] | Post-administration latency period [4] [s] | Smooth muscle tone After administration (histamine) [g] | Smooth muscle tone After administration ([3]; n = 8) [g] | other results
O=C1Cc2ccccc2C(=C2CCN(CCOP(=O)(O)O)CC2)c2ccsc21 [Compound IV-2] | 99.7 | White powder | 0.03 | White powder | 0.04 | White powder | 0.04 | White powder | 0.06 | White powder | 0.09 | 99.7 | 99.7 | 99.6 | 99.6 | 66.95±17.07 | – | 380.27 ± 50.25 | 1.14 ± 0.23 | 1.19 ± 0.31 | Antispasmodic percentage [3]: 30.40±18.50%
O=C1Cc2ccccc2C(=C2CCN(CCCCCOCOP(=O)(O)O)CC2)c2ccsc21 [Compound IV-9] | – | – | – | – | – | – | – | – | – | – | – | – | – | – | – | 66.57±18.66 | 32.95±19.04 | 369.11 ± 49.40 | 1.15 ± 0.26 | 1.16 ± 0.28 | –
O=C1Cc2ccccc2C(=C2CCN(CCOCOP(=O)(O)O)CC2)c2ccsc21 [Compound III-6] | – | – | – | – | – | – | – | – | – | – | – | – | – | – | – | 64.43±17.18 | – | 370.03 ± 52.11 | 1.22 ± 0.23 | 1.14 ± 0.30 | Smooth muscle tone After addition of histamine (histamine; after 0.05 mL histamine, before compound): 3.43 ± 0.92 g; Smooth muscle tone Before administration (histamine; baseline before histamine): 1.78 ± 0.20 g; Smooth muscle tone Before administration ([3]; baseline, n = 8): 1.71 ± 0.24 g; Antispasmodic percentage [3]: 33.33±19.04%; Pre-administration latency period ([4]; baseline before administration, histamine hydrochloride 0.8 mg/mL sprayed 40 seconds): 98.68 ± 49.22 s
CN1CCC(=C2c3ccccc3CC(=O)c3sccc32)CC1 [Ketotifen] | – | – | – | – | – | – | – | – | – | – | – | – | – | – | – | – | – | – | – | – | Solubility in Water [2]: Practically insoluble
O=C1Cc2ccccc2C(=C2CCN(CCCOCOP(=O)(O)O)CC2)c2ccsc21 [Compound IV-7] | – | – | – | – | – | – | – | – | – | – | – | – | – | – | – | 65.99±19.08 | 33.52±19.74 | 373.33 ± 52.76 | 1.17 ± 0.22 | 1.15 ± 0.25 | –
O=C1Cc2ccccc2C(=C2CCN(CCCCCOP(=O)(O)O)CC2)c2ccsc21 [Compound IV-5] | – | – | – | – | – | – | – | – | – | – | – | – | – | – | – | 65.61±19.34 | 33.72±19.05 | 377.11 ± 50.43 | 1.20 ± 0.22 | 1.14 ± 0.30 | –
O=C1Cc2ccccc2C(=C2CCN(CCOCOP(=O)(O)O)CC2)c2ccsc21 [Compound IV-6] | 99.7 | White powder | 0.03 | White powder | 0.05 | White powder | 0.09 | White powder | 0.12 | White powder | 0.25 | 99.7 | 99.6 | 99.6 | 99.4 | 66.56±19.45 | 31.17±19.54 | 370.56 ± 50.81 | 1.15 ± 0.20 | 1.17 ± 0.28 | –

Now from value to molecule, other results behind:

Content ([5]; Month 0) [%] | Description ([5]; Month 0) | Related substances ([5]; Month 0) [%] | Description ([5]; Month 1) | Related substances ([5]; Month 1) [%] | Description ([5]; Month 2) | Related substances ([5]; Month 2) [%] | Description ([5]; Month 3) | Related substances ([5]; Month 3) [%] | Description ([5]; Month 6) | Related substances ([5]; Month 6) [%] | remaining at 730 h ([5]; Month 1) [%] | remaining at 1460 h ([5]; Month 2) [%] | remaining at 2190 h ([5]; Month 3) [%] | remaining at 4380 h ([5]; Month 6) [%] | SMILES | Antispasmodic percentage [1] [%] | Antispasmodic percentage ([3]; 5 min) [%] | Post-administration latency period [4] [s] | Smooth muscle tone After administration (histamine) [g] | Smooth muscle tone After administration ([3]; n = 8) [g] | other results
99.7 | White powder | 0.03 | White powder | 0.05 | White powder | 0.09 | White powder | 0.12 | White powder | 0.25 | – | – | – | – | O=C1Cc2ccccc2C(=C2CCN(CCCOP(=O)(O)O)CC2)c2ccsc21 [Compound IV-3] | 64.91±18.92 | 30.95±19.69 | 371.38 ± 49.10 | – | – | Solubility in Isopropanol [2]: 1 mg/mL (≈ 2.31 mM); Content ([5]; Month 1, 43800 min): 99.7%; Content ([5]; Month 2, 87600 min): 99.6%; Content ([5]; Month 3, 131400 min): 99.6%; Content ([5]; Month 6, 262800 min): 99.4%
99.7 | White powder | 0.03 | White powder | 0.05 | White powder | 0.09 | White powder | 0.12 | White powder | 0.25 | 99.7 | 99.6 | 99.6 | 99.4 | O=C1Cc2ccccc2C(=C2CCN(CCCCOP(=O)(O)O)CC2)c2ccsc21 [Compound IV-4] | 65.40±19.07 | 30.59±19.00 | 376.89 ± 51.43 | 1.19 ± 0.21 | 1.18 ± 0.26 | –
99.7 | White powder | 0.03 | White powder | 0.05 | White powder | 0.09 | White powder | 0.12 | White powder | 0.24 | 99.7 | 99.6 | 99.6 | 99.4 | O=C1Cc2ccccc2C(=C2CCN(COP(=O)(O)O)CC2)c2ccsc21 [Compound IV-1] | 66.28±18.26 | 33.72±18.32 | 368.83 ± 49.03 | 1.18 ± 0.24 | 1.14 ± 0.31 | –
99.7 | White powder | 0.03 | White powder | 0.05 | White powder | 0.10 | White powder | 0.15 | White powder | 0.34 | 99.7 | 99.6 | 99.5 | 99.2 | O=C1Cc2ccccc2C(=C2CCN(CCCOP(=O)(O)O)CC2)c2ccsc21 [Compound III-3] | 66.66±15.49 | 30.23±17.82 | 368.01 ± 50.67 | – | – | Solubility in Isopropanol [2]: 24 mg/mL (≈ 55.4 mM); Solubility in Water [2]: 20 mg/mL (≈ 46.1 mM)
99.7 | White powder | 0.03 | White powder | 0.04 | White powder | 0.05 | White powder | 0.06 | White powder | 0.09 | 99.7 | 99.7 | 99.6 | 99.6 | O=C1Cc2ccccc2C(=C2CCN(CCCCOCOP(=O)(O)O)CC2)c2ccsc21 [Compound IV-8] | 65.01±18.56 | 32.94±19.45 | 370.23 ± 50.29 | 1.20 ± 0.25 | 1.14 ± 0.31 | –
